From patent publication US20140024683A1, “CHLORIDE CHANNEL AND CHLORIDE TRANSPORTER MODULATORS FOR THERAPY IN SMOOTH MUSCLE DISEASES” (priority 2011, published 2014)
“And” between values parts separate entries of the source, which are not always exact repeats. Equal entries are not always repeated. Where two headings read alike, the source gives them in different places.

What was measured:
[1] = tested on: human airway smooth muscle cells; assay: Whole cell current clamp recording of membrane potential; type: cell-based
Method: Induced electrophysiological changes in membrane potential and current were measured using traditional whole cell patch clamp methods. Immortalized human airway smooth muscle cells were grown to confluence on collagen-treated T25 flasks. Collagenase type IV in SmBM2 medium (Lonza, Walkersville, Md.) was used to release cells adherent to the collagen matrix in the flask. Medium with cells in suspension was then harvested in a 10-ml conical tube and centrifuged at 300×g. Supernatant was removed, and the pellet was resuspended in SmBM2 medium and transferred into collagen-treated glass bottom 1-cm Petri dishes at about 10% confluence. Each dish was then incubated at 37° C. and 5% CO2 for 1-4 hours for reattachment of cells to glass-bottom Petri dishes.
Glass-bottom dishes served as a disposable recording chamber. ALA VM-8, an 8-chamber pressure-driven drug application system, was used in a still bath of extracellular salt solution. Whole-cell intracellular voltage recordings under current clamp conditions were performed with a 2-kHz Bessel filter, recording at 10 kHz using an Axopatch 200b amplifier (Axon Instruments, Foster City, Calif., USA). Electrodes were pulled using a P-97 micropipette puller from 1.5-mm OD borosilicate capillary glass (Sutter Instruments, Novato, Calif., USA). Glass electrode resistances ranged from 5 to 10 MO with intracellular solution. Whole-cell intracellular current recordings under voltage-clamp conditions were performed with a 2-kHz Bessel filter, recording at 10 kHz using an Axopatch 200b amplifier. For current measurements (FIG. 11) intracellular solutions consisted of (in mM) 140 TEA-Cl, 5 MgATP, 5 EGTA, 1 MgCl2, 10 HEPES, and 5 CaCl2 (pH 7.2). Extracellular solution consisted of (in mM) 134 NaCl, 1.4 KCl, 10 HEPES, 1 MgCl2, 1.8 CaCl2, and 10 glucose (pH 7.4). This induced the classic spontaneously transient inward currents (STICs) and spontaneously transient outward currents (STOCs) well described in this cell type. STOCs are believed to represent activation of calcium activated potassium (KCa) channels while STICs are believed to represent activation of CaCCs. TEA-Cl was included in the buffer to enhance STICs which were then recorded during the addition of 100 μM niflumic acid. When recording TEA- and niflumic acid-induced responses on membrane potential (ΔmV), the intracellular solutions contained (in mM) 140 KCl, 5 MgATP, 5 EGTA, 1 MgCl2, 10 HEPES, and 5 CaCl2 (pH 7.2), and the extracellular solutions consisted of (in mM) 134 NaCl, 5 MgATP, 5 EGTA, 1 MgCl2, 10 HEPES, and 5 CaCl2 (pH 7.2). All recordings were analyzed on Clampfit 8.0 software (Molecular Devices).

rat lung slices = assay: Airway lumen area in peripheral small airways of rat lung slices; conditions: contractile agonists
Method: The measurement of airway contraction of a luminal area of small lung airways using the ex vivo rat lung slice method was performed as described (Perez-Zoghbi et al., 2007). The trachea was cannulated with an intravenous catheter, and after the chest cavity was opened, the collapsed lungs were reinflated with 1.3±0.1 ml of 2% agarose (low-gelling temperature) in Sigma-Hanks' Balanced Salt solution (sHBSS), followed by the injection of 0.2±0.1 of air to flush the agarose-sHBSS out of the airways and into the distal alveolar space. Subsequently, a warm (37° C.) solution of gelatin (type A, porcine skin, 300 bloom, 6% in sHBSS) was perfused through the intrapulmonary blood vessels via the pulmonary artery by injecting about 0.3 ml into the right ventricle. The warm agar and gelatin were gelled with cold sHBSS. A single lung lobe was removed and cut into serial sections of about 130 μm thick with a vibratome at about 4° C., starting at the lung periphery. Slices were maintained in DMEM (Invitrogen) at 37° C. and 10% CO2 for up to 3 days. At 37° C., the gelatin in the blood vessel lumen dissolved, leaving the blood vessel lumen empty. Lung slices were mounted in a custom-made perfusion chamber and held in place with a small sheet of nylon mesh. A second cover glass edged with silicone grease was placed over the lung slice. Perfusion of the lung slice was performed using a gravity-fed perfusion system. The volume of the chamber was about 100 μl with a perfusion rate of about 800 μl/min. […] Digital images were recorded in time lapse (30 frames/min). The area of the bronchiole and arteriole lumen was calculated, from each image, by pixel summing using custom-written software. Experiments were performed at room temperature.

[2] = tested on: human airway smooth muscle cells; type: cell-based
Method: This buffer was exchanged at 100 μl/well just before starting the measurement of fluorescence. […] In separate experiments the effect of extracellular chloride concentrations on SOCE was measured by the predepletion of extracellular calcium in low or high chloride buffer (55 mM versus 110 mM NaCl, osmotically balanced with Na gluconate) in the presence of thapsigargin to deplete intracellular calcium stores. Calcium induced fluorescence changes were measured with the reintroduction of 2 mM extracellular CaCl2.

RhoA = conditions: 10 mM TEA-acetate, 2 minutes
Method: FIG. 8 is a bar graph showing RhoA activation in human airway smooth muscle cells.
Measurement of activated rhoA in cultured human airway smooth muscle cells were conducted as follows. […] Reaction was stopped by solubilizing cells in buffer. Following clearance of non-solubilized cell material, the solubilized cells were reacted with Rhotekin bound to beads, which isolated activated RhoA from total RhoA. Fractions were then analyzed on a commercially available ELISA plate that quantitates activated versus total RhoA (Cytoskeleton, Inc.)

[3] = tested on: guinea pig tracheal rings; assay: Ex vivo airway smooth muscle force, prevention or relaxation of a contraction (Example 5); conditions: solo therapy; vs vehicle
Method: The chloride channel blocker NPPB and the chloride transporter blocker bumetanide were evaluated for their ability to prevent an initial contraction (n=5) (FIG. 23A) or to relax an existing contraction (n=6) (FIG. 23B).
As a proof of concept for chloride channel blockade in general, another chloride channel blocker, 5-nitro-2-(3-phenylpropylamino)-benzoic acid (NPPB) was used in an ex vivo guinea pig airway smooth muscle model.

[4] = tested on: guinea pig tracheal rings; assay: Relaxation of potassium gluconate contraction in guinea pig tracheal rings; conditions: 100 μM; 80 mM potassium gluconate
Method: (§1) Animal protocols were approved by the Columbia University Animal Care and Use Committee. Male Hartley guinea pigs weighing approximately 400 g were anesthetized with intraperitoneal injection of sodium pentobarbital (100 mg/kg). Trachea were removed and transferred to ice cold Krebs-Henseleit (KH) buffer of the following composition (in mM): NaCl 118, KCl 5.6, CaCl2 0.5, MgSO4 0.24, NaH2PO4 1.3, NaHCO3 25, glucose 5.6, pH 7.4. Epithelial-denuded tracheal rings were prepared using a dissecting microscope. Epithelium was removed by gently passing cotton fibers through the lumen of the tracheal rings. The rings were suspended in 4 mL-water jacketed organ baths (37° C.: Radnoti Glass Technology, Monrovia, Calif.) and connected to a Grass FT03 force transducer (Grass Telefactor, West Warwick, R.I.) using silk sutures. The transducers were coupled to the computer with BioPac hardware and data was collected using Acqknowledge 7.3.3 software (BioPac Systems, Goleta, Calif.). KH buffer was bubbled with a gas mixture of 95% oxygen and 5% carbon dioxide and buffer was exchanged every 15 minutes for 1 hour during equilibration of tracheal rings at 1 g resting tension. […].
Many chloride channel blockers are known to also stimulate potassium channels (Greenwood et al., 2007). Thus, we performed additional studies in the presence of a large extracellular concentration of potassium to ensure that our findings of compound 1 or 13 inhibiting a TEA-induced depolarizing contraction were not due to these compounds opening a potassium channel.

[5] = tested on: guinea pig tracheal rings; assay: Relaxation of TEA contraction in guinea pig tracheal rings (Example 16, library screen); conditions: 10 mM TEA
Method: as §1

[6] = tested on: guinea pig tracheal rings; assay: Relaxation of the maintenance phase of a pre-established acetylcholine contraction, guinea pig tracheal rings; conditions: 100 μM alone; pre-contracted with EC50 acetylcholine
Method: as §1
Chloride channel blockers were then tested against the plateau phase of an established acetylcholine contraction. […]

[7] = tested on: human airway smooth muscle; assay: Relaxation of acetylcholine contraction in human airway smooth muscle strips; conditions: 100 μM alone; EC50 acetylcholine
Method: Studies using de-identified human tissue were reviewed by the Columbia University Institutional Review Board and deemed not human subjects research. Tissues were obtained from healthy, normal organ donor discarded surgical waste subsequent to lung transplant surgery. Tissues were collected after transplant and placed in DMEM media (GIBCO) and bubbled overnight in 5% carbon dioxide and 95% oxygen at 4° C. The following morning, the smooth muscle tissue was carefully dissected under a dissecting microscope and the epithelium removed. The strips were anchored in the organ bath as described above using KH buffer of the same composition. The strips were allowed to equilibrate for 1 hour with buffer exchanges every 15 minutes and were treated with 10^−6 M tetrodotoxin, 10^−5 M pyrilamine, and 10^−5
M MK571. Strips were contracted with an EC50 dose of acetylcholine (Ach)
This experiment was then repeated with human airway smooth muscle to investigate clinical relevance as a model of bronchospasm in humans.

[8] = tested on: guinea pig tracheal rings; assay: Potentiation of isoproterenol relaxation of acetylcholine contraction, guinea pig tracheal rings; conditions: 50 μM compound 13
Method: as §1
Therefore, we tested whether the chloride channel blockers or modulation of chloride flux could be used in combination with β-agonists to potentiate their effects. […]. Therefore, a combination of treatment with compound 13 and bumetanide potentiated the relaxation effect of isoproterenol.

[9] = tested on: human airway smooth muscle cells; assay: FLIPR membrane potentiometric dye assay (Example 21); type: cell-based
Method: Immortalized airway smooth muscle cell lines modified to stably express human telomerase reverse transcriptase were a kind gift from Dr. William Gerthoffer (University of Southern Alabama, Mobile, Ala.) prepared as described previously (Gosens et al., 2006) and grown in Dulbecco's Modified Eagle's Medium/F12 media (GIBCO, Grand Island, N.Y.), with 10% FBS and antibiotics.
Immortalized human airway smooth muscle cells were cultured on black-walled 96 well plates to 100% confluence, and were washed four times with warmed (37° C.) assay buffer of the following composition (in mM): NaCl 140, KCl 4.7, CaCl2 2.5, MgCl2 1.2, HEPES 11, D-glucose 10. A stock solution (100% dye) of FLIPR blue dye was prepared by reconstitution of 1 vial (125 mg) with 100 ml assay buffer. A 50% working stock was prepared by further diluting the reconstituted blue dye 1:1 with assay buffer and was used to load cells (90 μl/well) over 45 min at 37° C. in a humidified cell culture incubator (95% air/5% CO2). All reagents were dissolved in assay buffer. Fluorescence was measured with a Flex Station 3 (Molecular Devices) using an excitation wavelength of 530 nm, emission wavelength of 565 nm and a cutoff filter of 550 nm. Baseline fluorescence was measured every 2 seconds for 1 minute then for 2 minutes after injection of vehicle or compound of interest as indicated (using the Flexstation's 3 integrated injection capabilities).
Human airway smooth muscle cells were incubated with FLIPR membrane potentiometric dye to assess if the chloride channel blockers changed membrane potential at the cellular level. FLIPR fluorescence will increase with depolarization, and decrease with hyperpolarization. […] Therefore, chloride channel blockade, but not NKCC blockade, hyperpolarized human airway smooth muscle cells.

[10] = tested on: Ca^2+-activated chloride channel; assay: Patch-clamp analysis of spontaneous transient inward currents (STICs)
[11] = 10 μM compound 13 and bradykinin, n=5
[12] = 10 μM compound 13 plus 30 μM bradykinin, n=5
[13] = compound 13 under basal conditions, n=9

Compound: CC[N+](CC)(CC)CC.[Cl-] [TEA, tetraethylammonium chloride]
- membrane potential (current clamp, whole cell) ([1]; 10 mM TEA-Cl): depolarized the cell
- percent decrease in lumen area compared to rest (rat lung slices): significant decrease in lumen area
- intracellular calcium (fluo4-AM fluorescence) ([2]; 10 mM TEA): does not increase intracellular Ca^2+
- RhoA activation (RhoA): activates rhoA

Compound: O=C(O)c1cc([N+](=O)[O-])ccc1NCCCc1ccccc1 [NPPB, 5-nitro-2-(3-phenylpropylamino)-benzoic acid]
- relaxation of an existing contraction [3]: effective in relaxing an existing contraction
- percent of potassium gluconate-induced contraction at 30 minutes [4]: 56.71%±10.6 and 56.7%±10.6

Compound: O=C(O)c1cc(Cl)ccc1NCc1cccc2ccccc12 [compound 13, 5-chloro-2-(1-naphthylmethylamino)benzoic acid]
- percent of the TEA-induced contraction remaining at 15 minutes ([5]; 100 μM): 61.0±10.1%
- relaxed fraction of a TEA-induced contraction at 15 minutes after drug addition ([5]; 100 μM): 39.0%
- relaxation of TEA-induced contraction (screen of 20-compound chloride channel blocker library) [5]: most potently relax
- percent of potassium gluconate-induced contraction at 30 minutes [4]: 68.17%±4.9 and 68.2%±4.9
- relaxation of established acetylcholine contraction [6]: 60.1%±5.7
- relaxation of acetylcholine contraction [7]: 52.5%±8.1
- shift of the EC50 of isoproterenol [8]: 2.2 fold
- change in relative fluorescent units (membrane potential, FLIPR) ([9]; 100 μM, n=12): −264.2+/−40 RFU
- amplitude of STICs ([10]; 10 μM compound 13 alone, n=9): 0.44±0.09 fold change with control normalized to 1
- frequency of STICs ([10]; 10 μM compound 13 alone, n=9): 0.4±0.1 fold change with control normalized to 1
- amplitude of STICs compared to control [10, 11]: 46%
- frequency of STICs compared to control [10, 11]: 40%
- amplitude of STICs [10, 12]: 0.46±0.13 fold change with control normalized to 1
- frequency of STICs [10, 12]: 0.4±0.14 fold change with control normalized to 1
- amplitude of STICs [10, 13]: 44 % of control
- frequency of STICs [10, 13]: 40 % of control

Compound: O=C([O-])[C@H](O)[C@@H](O)[C@H](O)[C@H](O)CO.[K+] [K gluconate, potassium gluconate]
- membrane potential (current clamp, whole cell) ([1]; 60-75 mM potassium (K)-gluconate): depolarized the cell
- membrane potential, continuous fluorescence recording (representative tracing) [9]: depolarizes
- intracellular calcium (fluo4-AM fluorescence) [2]: increased calcium
